Results as given in ChEMBL document CHEMBL1201862, “PubChem BioAssay data set” (2004).
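Exposure lasted 48 hours, with cells grown in 96-well plates and compounds tested at five concentrations. GI50 is the concentration that inhibits growth by half.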 Active and inactive are the calls of the source. Rule as the data show it: active = GI50 up to about 1.1 µM and inactive = higher.

Tests used:
Assay in all cases: NCI-60 cell line screen, 48 h
[1] = tested on: A498
[2] = tested on: CCRF-CEM
[3] = tested on: HL-60
[4] = tested on: HOP-92
[5] = tested on: OVCAR-3
[6] = tested on: OVCAR-4
[7] = tested on: OVCAR-5
[8] = tested on: RXF 393
[9] = tested on: SF-295
[10] = tested on: SF-539
[11] = tested on: SK-MEL-2
[12] = tested on: SN12C
[13] = tested on: SNB-75
[14] = tested on: TK-10
[15] = tested on: SR
[16] = tested on: CAKI-1

O=C(OCCCl)C1OC(n2cc(F)c(=O)[nH]c2=O)CC1O (configuration not stated)
GI50 [1]: > 100 µM (inactive)
GI50 [2]: > 100 µM (inactive)
GI50 [3]: > 100 µM (inactive)
GI50 [4]: 57.8 µM (inactive)
GI50 [5]: > 100 µM (inactive)
GI50 [6]: > 100 µM (inactive)
GI50 [7]: > 100 µM (inactive)
GI50 [8]: > 100 µM (inactive)
GI50 [9]: > 100 µM (inactive)
GI50 [10]: > 100 µM (inactive)
GI50 [11]: > 100 µM (inactive)
GI50 [12]: > 100 µM (inactive)
GI50 [13]: > 100 µM (inactive)
GI50 [14]: > 100 µM (inactive)

COc1cc(Cl)cc(O)c(=O)c1OC
GI50 [1]: 57.1 µM (inactive)
GI50 [2]: 12.7 µM (inactive)
GI50 [3]: 2.15 µM (inactive)
GI50 [5]: 20.1 µM (inactive)
GI50 [6]: 25.7 µM (inactive)
GI50 [7]: > 92.5 µM (inactive)
GI50 [8]: 26.9 µM (inactive)
GI50 [9]: 62.4 µM (inactive)
GI50 [10]: 44.5 µM (inactive)
GI50 [11]: 53.2 µM (inactive)
GI50 [12]: 46 µM (inactive)
GI50 [13]: 59.2 µM (inactive)
GI50 [15]: 2.2 µM (inactive)
GI50 [14]: 44.1 µM (inactive)

N#CCCN(CCC#N)c1ccc(/C=C2\N=C(CN3C(=O)c4ccccc4C3=O)OC2=O)cc1
GI50 [1]: > 100 µM (inactive)
GI50 [16]: > 100 µM (inactive)
GI50 [3]: > 100 µM (inactive)
GI50 [5]: > 100 µM (inactive)
GI50 [6]: > 100 µM (inactive)
GI50 [7]: > 100 µM (inactive)
GI50 [9]: > 100 µM (inactive)
GI50 [10]: > 100 µM (inactive)
GI50 [11]: > 100 µM (inactive)
GI50 [12]: > 100 µM (inactive)
GI50 [13]: > 100 µM (inactive)
GI50 [15]: > 100 µM (inactive)

COC(=O)C1CC(c2ccc(Cl)cc2)=NO1 (configuration not stated)
GI50 [1]: > 100 µM (inactive)
GI50 [16]: 6.17 µM (inactive)
GI50 [2]: > 100 µM (inactive)
GI50 [3]: > 100 µM (inactive)
GI50 [4]: > 100 µM (inactive)
GI50 [5]: > 100 µM (inactive)
GI50 [6]: > 100 µM (inactive)
GI50 [7]: > 100 µM (inactive)
GI50 [9]: > 100 µM (inactive)
GI50 [10]: > 100 µM (inactive)
GI50 [11]: > 100 µM (inactive)
GI50 [12]: > 100 µM (inactive)
GI50 [13]: > 100 µM (inactive)
GI50 [15]: > 100 µM (inactive)
GI50 [14]: > 100 µM (inactive)

Cc1ccc(NCC(=O)N2CC(=O)Nc3ccccc32)cc1
GI50 [16]: > 100 µM (inactive)
GI50 [2]: > 100 µM (inactive)
GI50 [3]: > 100 µM (inactive)
GI50 [4]: > 100 µM (inactive)
GI50 [5]: > 100 µM (inactive)
GI50 [6]: > 100 µM (inactive)
GI50 [7]: > 100 µM (inactive)
GI50 [8]: > 100 µM (inactive)
GI50 [9]: > 100 µM (inactive)
GI50 [10]: > 100 µM (inactive)
GI50 [11]: > 100 µM (inactive)
GI50 [12]: > 100 µM (inactive)
GI50 [13]: > 100 µM (inactive)
GI50 [15]: > 100 µM (inactive)
GI50 [14]: > 100 µM (inactive)

NCCCCCS(=O)(=O)O
GI50 [1]: > 100 µM (inactive)
GI50 [2]: > 100 µM (inactive)
GI50 [3]: > 100 µM (inactive)
GI50 [5]: > 100 µM (inactive)
GI50 [6]: > 100 µM (inactive)
GI50 [7]: > 100 µM (inactive)
GI50 [8]: > 100 µM (inactive)
GI50 [10]: > 100 µM (inactive)
GI50 [11]: > 100 µM (inactive)
GI50 [12]: > 100 µM (inactive)
GI50 [13]: > 100 µM (inactive)
GI50 [15]: > 100 µM (inactive)
GI50 [14]: > 100 µM (inactive)

COc1ccc(/C=C/c2onc3c(=O)n(C)nc(-c4ccccc4)c23)cc1
GI50 [16]: 35.9 µM (inactive)
GI50 [2]: > 100 µM (inactive)
GI50 [3]: > 100 µM (inactive)
GI50 [4]: 7.26 µM (inactive)
GI50 [8]: > 100 µM (inactive)
GI50 [10]: 48.9 µM (inactive)
GI50 [12]: > 100 µM (inactive)
GI50 [14]: > 100 µM (inactive)

Cc1ccc(C2CC(c3ccco3)=NN2c2ccccc2)o1 (configuration not stated)
GI50 [2]: > 100 µM (inactive)
GI50 [3]: > 100 µM (inactive)
GI50 [5]: > 100 µM (inactive)
GI50 [6]: > 100 µM (inactive)
GI50 [7]: > 100 µM (inactive)
GI50 [8]: > 100 µM (inactive)
GI50 [9]: > 100 µM (inactive)
GI50 [10]: > 100 µM (inactive)
GI50 [11]: > 100 µM (inactive)
GI50 [12]: > 100 µM (inactive)
GI50 [13]: > 100 µM (inactive)
GI50 [15]: > 100 µM (inactive)
GI50 [14]: > 100 µM (inactive)

COCc1c(CO)cnc(C)c1OC1OC(CO)C(O)C(O)C1O (configuration not stated)
GI50 [1]: > 100 µM (inactive)
GI50 [16]: > 100 µM (inactive)
GI50 [5]: > 100 µM (inactive)
GI50 [6]: > 100 µM (inactive)
GI50 [7]: > 100 µM (inactive)
GI50 [8]: > 100 µM (inactive)
GI50 [9]: > 100 µM (inactive)
GI50 [10]: > 100 µM (inactive)
GI50 [11]: > 100 µM (inactive)
GI50 [12]: > 100 µM (inactive)
GI50 [13]: > 100 µM (inactive)
GI50 [15]: > 100 µM (inactive)

COc1ccc2cccc(C(=N)c3ccc(C)c4c3CCC4)c2c1
GI50 [1]: 2.14 µM (inactive)
GI50 [16]: 3.95 µM (inactive)
GI50 [2]: 6.58 µM (inactive)
GI50 [3]: 2.67 µM (inactive)
GI50 [5]: 3.52 µM (inactive)
GI50 [6]: 12.2 µM (inactive)
GI50 [7]: 6.17 µM (inactive)
GI50 [8]: 12.8 µM (inactive)
GI50 [9]: 5.7 µM (inactive)
GI50 [11]: 11.9 µM (inactive)
GI50 [12]: 12 µM (inactive)
GI50 [13]: 11.8 µM (inactive)
GI50 [15]: 2.62 µM (inactive)
GI50 [14]: 11.6 µM (inactive)

CCCNCC(=O)O[C@]1(CC)C(=O)OCc2c1cc1n(c2=O)Cc2cc3ccccc3nc2-1
GI50 [1]: 0.163 µM (active)
GI50 [2]: < 0.01 µM (active)
GI50 [3]: < 0.01 µM (active)
GI50 [4]: 0.325 µM (active)
GI50 [5]: 0.457 µM (active)
GI50 [6]: 0.69 µM (active)
GI50 [7]: 0.129 µM (active)
GI50 [8]: 0.0397 µM (active)
GI50 [9]: < 0.01 µM (active)
GI50 [10]: 0.0118 µM (active)
GI50 [11]: 1.13 µM (inactive)
GI50 [12]: < 0.01 µM (active)
GI50 [13]: 0.0429 µM (active)
GI50 [15]: < 0.01 µM (active)
GI50 [14]: 4.43 µM (inactive)

CC1(C)C(=O)/C=C\C(=O)C(C)(C)C2=CC=C(O2)C(C)(C)C(=O)/C=C\C(=O)C(C)(C)C2=CC=C1O2
GI50 [1]: > 100 µM (inactive)
GI50 [16]: > 100 µM (inactive)
GI50 [2]: > 100 µM (inactive)
GI50 [3]: > 100 µM (inactive)
GI50 [4]: > 100 µM (inactive)
GI50 [5]: > 100 µM (inactive)
GI50 [6]: > 100 µM (inactive)
GI50 [7]: > 100 µM (inactive)
GI50 [8]: > 100 µM (inactive)
GI50 [9]: > 100 µM (inactive)
GI50 [11]: > 100 µM (inactive)
GI50 [12]: > 100 µM (inactive)
GI50 [15]: > 100 µM (inactive)
GI50 [14]: > 100 µM (inactive)

COC1=CC(=O)C2C(C1=O)C(c1ccc(OC)c(OC)c1)[C@H]2C (some centres not stated)
GI50 [1]: > 100 µM (inactive)
GI50 [16]: 11.5 µM (inactive)
GI50 [2]: 22.6 µM (inactive)
GI50 [3]: 20.5 µM (inactive)
GI50 [4]: 20 µM (inactive)
GI50 [5]: 19.6 µM (inactive)
GI50 [6]: 16.6 µM (inactive)
GI50 [7]: > 100 µM (inactive)
GI50 [8]: 19.7 µM (inactive)
GI50 [9]: > 100 µM (inactive)
GI50 [10]: > 100 µM (inactive)
GI50 [11]: > 100 µM (inactive)
GI50 [13]: > 100 µM (inactive)
GI50 [14]: 19 µM (inactive)

CCCCCCCCCCCC[N+]12CC[N+](CCN)(CC1)CC2
GI50 [16]: 19.2 µM (inactive)
GI50 [2]: 73.6 µM (inactive)
GI50 [3]: 27.7 µM (inactive)
GI50 [4]: 29.4 µM (inactive)
GI50 [5]: > 100 µM (inactive)
GI50 [6]: > 100 µM (inactive)
GI50 [7]: 17.2 µM (inactive)
GI50 [8]: 5.62 µM (inactive)
GI50 [9]: 51.8 µM (inactive)
GI50 [10]: 89.7 µM (inactive)
GI50 [11]: > 100 µM (inactive)
GI50 [12]: 76.7 µM (inactive)
GI50 [13]: 28.2 µM (inactive)
GI50 [15]: 26.9 µM (inactive)
GI50 [14]: 17.1 µM (inactive)

COC(=O)c1cc(O)ccc1O [METHYL 2,5-DIHYDROXYBENZOATE]
GI50 [16]: > 100 µM (inactive)
GI50 [2]: > 100 µM (inactive)
GI50 [3]: > 100 µM (inactive)
GI50 [4]: > 100 µM (inactive)
GI50 [5]: > 100 µM (inactive)
GI50 [6]: > 100 µM (inactive)
GI50 [7]: > 100 µM (inactive)
GI50 [8]: > 100 µM (inactive)
GI50 [9]: > 100 µM (inactive)
GI50 [10]: > 100 µM (inactive)
GI50 [11]: > 100 µM (inactive)
GI50 [12]: > 100 µM (inactive)
GI50 [13]: > 100 µM (inactive)
GI50 [14]: > 100 µM (inactive)
